Assay results: US20100113332A1, “METHOD OF TREATING AN INFLAMMATORY DISEASE BY DOUBLE STRANDED RIBONUCLEIC ACID” (NASTECH PHARMACEUTICAL COMPANY INC., priority 2004, published 2010)

What was measured:
TNF-α = experiment: mouse LPS response, TNF-α in blood; format: in vivo; conditions: 2 mg/kg siRNA, with or without PN73; vs negative controls
Procedure: Normal [mouse type] mice were treated with various concentrations of LPS by intraperitoneal or intravenous injections. LPS responsiveness was determined by measuring levels of TNF-α in blood that was sampled various times following the LPS injection. A linear range of TNF-α induction was found between 10 ng and 100 ng for LPS injection by IP administration and up to 25 ng by IV injection. The average time for maximal TNF-α induction is 70 minutes following LPS injection.
The LPS induction was performed 24 hr following the last siRNA injection, 0.2 ug LPS and blood was collected at 90 minutes following LPS injection.
Three studies of 30 animals each dosing by the following schedules: 4 consecutive days; 8 consecutive days; and 11 consecutive days. LPS induction was performed at 24 hr post siRNA injection, 25 ng LPS (IP). Blood was drawn 70 minutes following LPS injection. […] Results from measurements and 8 and 11 days gave variable results owing to technical problems partly arising from repeated tail injections.

[1] = tested on: human TNF-α transgenic mice; experiment: RA paw score in human TNF-α transgenic mice; conditions: group TNF #4
Procedure: For human TNF-α animal disease models, two transgenic models were used. The tg197 mice were acquired from Pasteur Hellenic Institute (Athens, Greece), and the B6.SJL-Tg(TNF) N21 mice were purchased from Taconic, Inc. (Germantown, N.Y.). The genotypes of both human TNF-α transgenic mouse models were performed by suppliers. […] All treatments were by tail vein injection twice a week. […] A similar dose regimen was used for B6.SJL-Tg(TNF) N21 mice. Clinical scores were based on a previously described scoring system (2, 3) as follows: 0 (normal), 1 (edema or distortion of paw or ankle joints), 2 (distortion of paw and ankle joints), or 3 (ankylosis of wrist or ankle joints). The sum of all four paws was scored twice a week with a maximum score of 12 per mouse.
For Hellenic transgenic mice, RA scores were determined (blinded to treatment) using the following criteria: 0, normal; 1, edema or distortion of paw or ankle joints; 2 distortion of paw and ankle joints; 3, ankylosis of wrist or ankle joints.
Human NF-α expressing mice were purchase from the Hellenic Pasture Institute, Greece) at 5 weeks old. […] During the injection periods, plasma samples were collected for ELISA testing (R&D Systems, Cat#SSTA00C), and paw scores were taken twice a week as an accepted index of RA disease progression and therapeutic efficacy (Table 19).
Due to the difference in the starting point (some animals present with scores at earlier points), the scores have been adjusted to 0 for all animals in the experiments. Each paw is given a score between 0 and 3, with the highest score of 12, according to the following scoring index. • 0: Normal • 1: edema or distortion of paw or ankle joints • 2: distortion of paw and ankle joints • 3: ankylosis of wrist or ankle joints.

TNF-α mRNA = experiment: TNF-α knockdown in human monocytes (branch DNA);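 note: LPS-activated human CD14+ monocytes, TNF-α mRNA read by branched DNA assay and normalized to cypB mRNA, knockdown compared with random-sequence Qneg siRNA as negative control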
Description: For mRNA measurement, branch DNA technology from Genospectra (CA) was used according to manufacturer's specification. Human monocytes (CD14+) treated with LPS induce TNF-α-specific mRNA within approximately 2 hrs, followed by peak levels of TNF-α protein 2 hrs later. siRNAs were screened for knockdown activity by transfecting monocytes with siRNA candidate sequences using Lipofectamine 2000, treating infected cells with LPS, and measuring TNF-α mRNA levels approximately 16 hrs later.
To quantitate mRNA level in the cells, both house keeping gene (cypB) and target gene (TNF-α) mRNA were measured, and the reading for TNF-α was normalized with cypB to obtain relative luminescence unit.
Qneg represents a random siRNA sequence and functions as the negative control in these experiments.

Sequence: AAUCCUCAGCCUCUUCUCCUU (siRNA; chemistry not fully specified) [LC13]
- circulating TNF-α resulting from LPS induction (TNF-α): lowered amounts of circulating TNF-α
- Relative effect of siRNA, paw score [1]: Overall low paw score
- TNF-α knockdown activity (FIG. 6-C) (TNF-α mRNA; absence of PN73, 0-2.5 nM): little knockdown activity
- KD (%) TNF-α (TNF-α mRNA; siRNA 4 nM complexed with 1.6 uM PN73): 48.29%
- KD (%) TNF-α (TNF-α mRNA; siRNA 4 nM complexed with 1.6 uM PN509): 25.04%
- KD (%) TNF-α (TNF-α mRNA; siRNA 20 nM complexed with 0.5 uM PN250): 20.65%
- KD (%) TNF-α (TNF-α mRNA; siRNA 20 nM complexed with 0.75 uM PN250): 18.04%
- KD (%) TNF-α (TNF-α mRNA; siRNA 20 nM complexed with 1 uM PN250): 31.35%
- decrease in TNF-α gene expression relative to Qneg control (FIG. 6-B) (TNF-α mRNA; siRNA complexed with PN73 1:1, 0-2.5 nM): ~15%
